Measured values as given in PubChem BioAssay (NCI).
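Dose response: 5 concentrations. Exposure: 48 h. Format: 96-well plates. Endpoint: linear interpolation; highest concentration if not reached. GI50 is the concentration that inhibits growth by half. Definition used: TGI = concentration required for complete inhibition of growth.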

How the values were obtained:
Experiment in all cases: NCI anticancer screen, dose series, 48 h
CCRF-CEM leukemia = test system: CCRF-CEM leukemia
HT29 colon = test system: HT29 colon
ACHN renal = test system: ACHN renal
M14 melanoma = test system: M14 melanoma
HCT-116 colon = test system: HCT-116 colon
SK-MEL-5 melanoma = test system: SK-MEL-5 melanoma
SF-295 CNS = test system: SF-295 CNS
OVCAR-3 ovarian = test system: OVCAR-3 ovarian
SNB-75 CNS = test system: SNB-75 CNS
NCI-H460 lung = test system: NCI-H460 lung
LOX IMVI melanoma = test system: LOX IMVI melanoma

| Structure (SMILES) | GI50 (CCRF-CEM leukemia) [µM] | TGI (CCRF-CEM leukemia) [µM] | TGI (HT29 colon) [µM] | GI50 (ACHN renal) [µM] | TGI (ACHN renal) [µM] | GI50 (M14 melanoma) [µM] | TGI (M14 melanoma) [µM] | GI50 (HCT-116 colon) [µM] | TGI (HCT-116 colon) [µM] | GI50 (SK-MEL-5 melanoma) [µM] | TGI (SK-MEL-5 melanoma) [µM] | GI50 (SF-295 CNS) [µM] | TGI (SF-295 CNS) [µM] | GI50 (OVCAR-3 ovarian) [µM] | TGI (OVCAR-3 ovarian) [µM] | GI50 (SNB-75 CNS) [µM] | TGI (SNB-75 CNS) [µM] | TGI (NCI-H460 lung) [µM] | GI50 (LOX IMVI melanoma) [µM] | TGI (LOX IMVI melanoma) [µM] |
| --- | --- | --- | --- | --- | --- | --- | --- | --- | --- | --- | --- | --- | --- | --- | --- | --- | --- | --- | --- | --- |
| CCCCCCCCCC[C@@H](O)[C@H]1CC[C@H]([C@H]2CC[C@H]([C@H](O)CCCCCCCCCC[C@@H]3CC(CC(C)=O)C(=O)O3)O2)O1 (stereo not given in full) | 1.74 | > 50 | > 50 | 0.422 | > 50 | 5.29 | > 50 | 1.32 | > 37.2 | 1.97 | > 21.5 | 2.22 | > 50 | 4.48 | > 50 | 3.88 | > 50 | > 50 | 0.935 | > 50 |
| Cc1sc2nc3n(c(=O)c2c1C)N=CN(c1ccccc1)C3 |  | > 100 | > 100 |  | > 100 |  | > 100 |  | > 100 |  | > 100 |  | > 100 |  | > 100 |  | > 100 | > 100 |  | > 100 |
| CCOC(=O)c1cc(=C2\CCN(CC(C)CC)C2=S)/c(=C(/O)CC)[nH]1 (stereo not given) |  | 21.7 | 48 |  | 28.9 |  |  |  | 28.7 |  |  |  | 34.4 |  |  |  | 36.9 | 40.8 |  | 41.2 |
| Cc1cc2c(c(C(=O)NCCC(=O)O)c1)Oc1c(cc(C)cc1C(=O)NCCC(=O)O)S2 |  | > 100 | > 100 |  | > 100 |  | > 100 |  | > 100 |  |  |  | > 100 |  | > 100 |  | > 100 |  |  | > 100 |
| O=C(/C(=C(/Br)I)c1ccccc1)c1ccccc1 |  | 30.4 | 36.1 |  | 71.2 |  | 31 |  | 31.7 |  | 41.8 |  | 69.6 |  | 42 |  | 71 | 37.2 |  | 32.3 |
| COC(=O)C1=C(C(=O)OC)C2OC1C1C2C2(C)C(C)=C(C)C1(C)S2=O (stereo not given) |  |  | > 49.9 |  | 12.9 |  | 27.7 |  | 27 |  | 19.2 |  | > 84.8 |  | 25.5 |  | 38.1 | 36.3 |  | > 100 |
| N#Cc1c(N)[nH]c(=S)c(C#N)c1-c1cccc(Cl)c1 |  |  | > 100 |  | > 100 |  | > 100 |  | 60.6 |  | > 100 |  | > 100 |  | > 100 |  |  | > 100 |  | > 100 |
| Cc1c(S(=O)(=O)c2ccccc2)c(N)n(Cc2ccccc2)c1C |  | > 100 | > 100 |  | > 100 |  | > 100 |  | > 100 |  | > 100 |  | > 100 |  | > 100 |  | > 100 | > 100 |  |  |
| O=C1CC2(C[C@@H]3CCCCCCCCC[C@@H](C3)C2)N1 (stereo not given in full) |  | 37.6 | 26.9 |  | 29.3 |  | 28.8 |  | 33.6 |  | 30.6 |  | 31.2 |  |  |  | 20.6 | 38.4 |  |  |
| CCOC(=O)c1c(NC(=O)c2ccccc2)sc2c1CCCC2 |  | > 100 | > 100 |  | > 100 |  | > 100 |  | > 100 |  | > 100 |  | > 100 |  | > 100 |  | > 100 |  |  | > 100 |
| CC12CC(c3ccccc3O1)C(C(=O)Nc1ccc(F)cc1)C(=O)N2 (stereo not given) |  | > 100 | > 100 |  | > 100 |  | > 100 |  | > 100 |  | > 100 |  |  |  | > 100 |  |  | > 100 |  | > 100 |
| CCOc1ccc(N/C(=C(/C(Cl)=C(/Cl)NCCN)[N+](=O)[O-])n2nnc3ccccc32)cc1 |  | > 100 | > 100 |  | 43.8 |  | > 100 |  | 74.6 |  |  |  | > 100 |  | 63.3 |  | > 100 | > 100 |  |  |
| CC1C(c2cc(C(C)(C)C)c(O)c(C(C)(C)C)c2)c2cc3c(cc2OC1N1CCOCC1)OCO3 (stereo not given) |  | > 100 | > 100 |  | 22.7 |  | 59.3 |  | 30.7 |  | 47.3 |  | 32.1 |  | 35 |  |  | 87 |  | 44.7 |
| O=C(Cc1nc2ccc(C(=O)c3ccccc3)cc2[nH]c1=O)C(=O)Nc1ccc(Br)cc1 |  |  | > 100 |  | > 100 |  | > 100 |  | > 100 |  | > 100 |  | > 100 |  | > 100 |  | > 100 | > 100 |  | > 100 |
| CC(C)(C)OC(=O)NC(C)(C)C(=O)NCCC(=O)O |  | > 100 | > 100 |  | > 100 |  | > 100 |  |  |  | > 100 |  | > 100 |  | > 100 |  | > 100 | > 100 |  | > 100 |
| c1cc(-c2cnc(-c3ccc4c(c3)CCCO4)o2)ccn1 |  | 29.7 | 41.3 |  | 37.9 |  | 33 |  | 31.6 |  | 25.4 |  | 37.4 |  | 33.5 |  | 25.2 |  |  | 29.7 |
| CCCN=C1CC(C)Nc2ccccc2N1 (stereo not given) |  | > 100 | > 100 |  | > 100 |  | > 100 |  | > 100 |  | > 100 |  | > 100 |  | > 100 |  | > 100 | > 100 |  |  |
| CCOC(=O)c1cc(C2(O)CCN(Cc3ccccc3)C2=O)c(-c2cc(C)no2)[nH]1 (stereo not given) |  | > 100 |  |  | > 100 |  | > 100 |  | > 100 |  | > 100 |  | 78.4 |  | > 100 |  | 85.8 | > 100 |  | > 100 |
| Cc1ccc2c(c1C)CC1(Cc3c(ccc4c3CCC4)C1=O)C2=O (stereo not given) |  | > 100 | > 100 |  | > 100 |  | > 100 |  | > 100 |  | > 100 |  | > 100 |  | > 100 |  | > 100 | > 100 |  |  |
| CCOP(=O)(OCC)[C@H](O)c1ccsc1 |  | > 100 | > 100 |  | > 100 |  | > 100 |  | > 100 |  | > 100 |  | > 100 |  |  |  | > 100 | > 100 |  | > 100 |
